Results taken from patent publication US8673917B2, “2-heteroaryl-pyrrolo [3,4-C]pyrrole derivatives, and use thereof as SCD inhibitors” (Sanofi, priority 2008, dated 2014).
Structures can show the parent of a compound that is named as a salt.

Target: T1, SCD1 (Rattus norvegicus, UniProt P07308)
T1 construct: from tissue; host or cells: liver microsomes of male Wistar rats fed a carbohydrate-rich, low-fat diet
T1 sequence (P07308 1-358): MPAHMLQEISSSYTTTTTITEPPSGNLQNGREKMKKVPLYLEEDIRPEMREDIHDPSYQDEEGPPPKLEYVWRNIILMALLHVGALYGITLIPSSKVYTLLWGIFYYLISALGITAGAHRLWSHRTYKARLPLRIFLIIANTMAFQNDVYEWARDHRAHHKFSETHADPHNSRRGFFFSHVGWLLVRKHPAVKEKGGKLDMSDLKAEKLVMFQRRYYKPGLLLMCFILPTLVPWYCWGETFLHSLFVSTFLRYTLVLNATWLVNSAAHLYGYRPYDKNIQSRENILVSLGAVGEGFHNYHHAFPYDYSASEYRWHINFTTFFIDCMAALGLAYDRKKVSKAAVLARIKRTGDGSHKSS
Assay: Stearoyl-CoA desaturase (SCD1) activity assay with rat liver microsomes, TLC with 1-14C-labeled stearic acid
Assay type: biochemical
Conditions: for IC50: SCD1 activity; for inhibition at 10 µM: inhibition of SCD1 activity at 10 μM/l
Method: The efficacy of the inventive compounds of the formula I was tested with microsomal enzymes in the following assay system:
The livers of male Wistar rats which (to induce the expression of SCD1) had been fed with a carbohydrate-rich, low-fat diet were homogenized with a Potter tissue homogenizer and differential centrifugation in a buffer which contained 250 mM/l of sucrose and 5 mM/l of HEPES (pH 7.0). The resuspended microsome fraction was stored at −80° C. The stearoyl-CoA desaturase activity was determined in a thin-film chromatography assay with 1-^14C-labeled stearic acid. In short, the particular inventive compounds (in DMSO in a final concentration of 1% [v/v]) were incubated with 15 μg of the rat liver microsomes in 200 μl of assay buffer (6 mM/l of MgCl2, 250 mM/l of sucrose, 150 mM/l of KCl, 40 mM/l of NaF, 100 mM/l of Na2HPO4 (pH7.4), 1.3 mM/l of ATP, 1.5 mM/l of reduced glutathione, 60 uM/l of CoA, 0.33 mM/l of nicotinamide and 0.94 mM/l of NADH) at room temperature for 10 min. 0.5 μCi [1-^14C]-stearic acid (55 mCi/mmol) was added, and the mixture was incubated at 37° C. for 1 h. The radioactively labeled fatty acids were subsequently hydrolyzed at 65° C. with 2.5 M KOH/MeOH:H2O (4:1) for 4 h, protonated with 280 μl of formic acid and extracted with 500 μl of hexane. The TLC plates were immersed into 10% AgNO3 and heat-activated before use. 150 μl of the hexane phase were applied to the plates, and the TLC plates were developed in buffer (chloroform:methanol:acetic acid:water [90:8:1:0.8]) and dried. The plates were read off in a phosphoimager to quantify the SCD1 activity.
The person skilled in the art can modify this assay in various aspects to determine the inhibition of the stearoyl-CoA desaturase activity.

| IC50 [nM] | inhibition at 10 µM [%] | SMILES |
| --- | --- | --- |
| 7120 | – | O=C(c1ccccc1C(F)(F)F)N1CC2=C(C1)CN(c1ccc(OCC3CCOCC3)nn1)C2 [Example 7, {5-[6-(Tetrahydropyran-4-ylmethoxy)pyridazin-3-yl]-3,4,5,6-tetrahydro-1H-pyrrolo[3,4-c]pyrrol-2-yl}-(2-trifluoromethylphenyl)methanone trifluoroacetate] |
| 8.48 | – | O=C(c1ccccc1C(F)(F)F)N1CC2=C(C1)CN(c1ccc(OCc3ccccc3)nn1)C2 [Example 8, 5-(6-Benzyloxypyridazin-3-yl)-3,4,5,6-tetrahydro-1H-pyrrolo[3,4-c]pyrrol-2-yl](2-trifluoromethylphenyl)methanone hydrochloride] |
| 795 | 86 | O=C(c1ccccc1C(F)(F)F)N1CC2=C(C1)CN(c1ccc(OCc3nccs3)nn1)C2 [Example 2, {5-[6-(Thiazol-2-ylmethoxy)pyridazin-3-yl]-3,4,5,6-tetrahydro-1H-pyrrolo[3,4-c]pyrrol-2-yl}-(2-trifluoromethylphenyl)methanone] |
| 1340 | – | O=C(c1ccccc1C(F)(F)F)N1CC2=C(C1)CN(c1ccc(OCc3ccccn3)nn1)C2 [Example 9, 5-[6-(Pyridin-2-ylmethoxy)pyridazin-3-yl]-3,4,5,6-tetrahydro-1H-pyrrolo[3,4-c]pyrrol-2-yl}-(2-trifluoromethylphenyl)methanone hydrochloride] |
| 43.4 | – | O=C(c1ccccc1C(F)(F)F)N1CC2=C(C1)CN(c1ccc(OCCc3ccccc3)nn1)C2 [Example 4, [5-(6-Phenethyloxypyridazin-3-yl)-3,4,5,6-tetrahydro-1H-pyrrolo[3,4-c]pyrrol-2-yl](2-trifluoromethylphenyl)methanone trifluoroacetate] |
| 213 | – | O=C(c1ccccc1C(F)(F)F)N1CC2=C(C1)CN(c1ccc(OCCC3CC3)nn1)C2 [Example 5, {5-[6-(2-Cyclopropylethoxy)pyridazin-3-yl]-3,4,5,6-tetrahydro-1H-pyrrolo[3,4-c]pyrrol-2-yl}-(2-trifluoromethylphenyl)methanone trifluoroacetate] |
| 7.18 | 100 | O=C(c1ccccc1C(F)(F)F)N1CC2=C(C1)CN(c1ccc(OCc3ccccc3)nn1)C2 [Example 3, [5-(6-Benzyloxpyridazin-3-yl)-3,4,5,6-tetrahydro-1H-pyrrolo[3,4-c]pyrrol-2-yl](2-trifluoromethylphenyl)methanone] |
| 133 | 80 | O=C(c1ccccc1C(F)(F)F)N1CC2=C(C1)CN(c1ccc(OCc3ccccc3)cn1)C2 [Example 1, [5-(5-Benzyloxypyridin-2-yl)-3,4,5,6-tetrahydro-1H-pyrrolo[3,4-c]pyrrol-2-yl](2-trifluoromethylphenyl)methanone] |
| 483 | – | O=C(c1ccccc1C(F)(F)F)N1CC2=C(C1)CN(c1ccc(OCc3cscn3)nn1)C2 [Example 6, {5-[6-(Thiazol-4-ylmethoxy)pyridazin-3-yl]-3,4,5,6-tetrahydro-1H-pyrrolo[3,4-c]pyrrol-2-yl}-(2-trifluoromethylphenyl)methanone trifluoroacetate] |
